Data published in PubChem BioAssay (NCI).
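Where inhibition never reached the appropriate level, the endpoint shown equals the highest concentration tested. Otherwise, values were interpolated linearly from a five-concentration, 48-hour dose response in 96-well plates. GI50 is the concentration that inhibits growth by half. TGI marks complete inhibition of growth.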

Legend:
Test in all cases: growth of human tumour cells (NCI), 48 h
PC-3 prostate = test system: PC-3 prostate
HT29 colon = test system: HT29 colon
SF-268 CNS = test system: SF-268 CNS
ACHN renal = test system: ACHN renal
BT-549 breast = test system: BT-549 breast
RXF 393 renal = test system: RXF 393 renal
EKVX NSCLC = test system: EKVX NSCLC
OVCAR-8 ovarian = test system: OVCAR-8 ovarian

SMILES: O=C(O)CC(NC(=O)Nc1ccc([N+](=O)[O-])cc1)C(=O)Nc1ccc([N+](=O)[O-])cc1 (stereo not drawn)
- TGI (PC-3 prostate): > 100 µM
- TGI (HT29 colon): > 100 µM
- TGI (SF-268 CNS): > 100 µM
- TGI (ACHN renal): > 100 µM
- TGI (BT-549 breast): > 100 µM
- TGI (RXF 393 renal): > 100 µM
- TGI (EKVX NSCLC): > 100 µM
- TGI (OVCAR-8 ovarian): > 100 µM

SMILES: O=S(=O)(c1ccccc1)n1c(C(O)c2ccncc2)cc2ccccc21 (stereo not drawn)
- TGI (PC-3 prostate): > 100 µM
- TGI (HT29 colon): > 100 µM
- TGI (ACHN renal): > 100 µM
- TGI (BT-549 breast): > 100 µM
- TGI (RXF 393 renal): > 100 µM
- TGI (EKVX NSCLC): > 100 µM
- TGI (OVCAR-8 ovarian): > 100 µM

SMILES: CC(C)OC(=O)c1ccc(NCC2=CC(=O)C=CC2=O)cc1Cl
- TGI (PC-3 prostate): > 100 µM
- TGI (HT29 colon): > 62.5 µM
- TGI (SF-268 CNS): 35.2 µM
- TGI (ACHN renal): 16 µM
- TGI (BT-549 breast): 9.92 µM
- TGI (RXF 393 renal): 47.5 µM
- TGI (EKVX NSCLC): 32.5 µM
- TGI (OVCAR-8 ovarian): > 51.4 µM

SMILES: COc1ccc2oc(S(=O)(=O)N3CC(CCl)c4ccc([N+](=O)[O-])cc43)cc2c1 (stereo not drawn)
- TGI (PC-3 prostate): 11.5 µM
- TGI (HT29 colon): 68 µM
- TGI (SF-268 CNS): > 39.8 µM
- TGI (ACHN renal): > 48.1 µM
- TGI (BT-549 breast): 16.4 µM
- TGI (EKVX NSCLC): 48.8 µM
- TGI (OVCAR-8 ovarian): 4.36 µM

SMILES: NNC(=O)CC(=O)Nc1ccc(Cl)cc1
- TGI (PC-3 prostate): > 100 µM
- TGI (HT29 colon): > 100 µM
- TGI (SF-268 CNS): > 100 µM
- TGI (ACHN renal): > 100 µM
- TGI (BT-549 breast): > 100 µM
- TGI (RXF 393 renal): > 100 µM
- TGI (EKVX NSCLC): > 100 µM
- TGI (OVCAR-8 ovarian): > 100 µM

SMILES: COc1ccc(-c2oc3ccc(C)cc3c(=O)c2O)cc1
- TGI (PC-3 prostate): > 100 µM
- TGI (HT29 colon): > 100 µM
- TGI (SF-268 CNS): > 100 µM
- TGI (ACHN renal): > 100 µM
- TGI (BT-549 breast): > 100 µM
- TGI (RXF 393 renal): > 100 µM
- TGI (EKVX NSCLC): > 100 µM
- TGI (OVCAR-8 ovarian): 79.3 µM

SMILES: O=C(CCc1cccc(O)c1)NCCc1cccc(O)c1
- TGI (PC-3 prostate): > 100 µM
- TGI (HT29 colon): > 100 µM
- TGI (SF-268 CNS): > 100 µM
- TGI (ACHN renal): > 100 µM
- TGI (BT-549 breast): > 100 µM
- TGI (RXF 393 renal): > 100 µM
- TGI (EKVX NSCLC): > 100 µM
- TGI (OVCAR-8 ovarian): > 100 µM

SMILES: COc1cc2c(cc1OCCCC(=O)Nc1cc(C(=O)Nc3cc(C(=O)Nc4cc(C(=O)NCCCN(C)C)n(C)c4)n(C)c3)n(C)c1)N=C[C@@H]1CCCN1C2=O
- TGI (PC-3 prostate): 6 µM
- TGI (HT29 colon): 4.1 µM
- TGI (SF-268 CNS): 3.31 µM
- TGI (ACHN renal): 2.99 µM
- TGI (BT-549 breast): 4.91 µM
- TGI (RXF 393 renal): 3.15 µM
- TGI (EKVX NSCLC): 7.57 µM
- TGI (OVCAR-8 ovarian): 3.21 µM

SMILES: COc1ccc(/C=N\N2CC(=O)N3C4C=CC(CC4)N3C2=O)cc1 (stereo not drawn)
- TGI (PC-3 prostate): > 100 µM
- TGI (HT29 colon): > 100 µM
- TGI (SF-268 CNS): > 100 µM
- TGI (ACHN renal): > 100 µM
- TGI (BT-549 breast): > 100 µM
- TGI (EKVX NSCLC): > 100 µM
- TGI (OVCAR-8 ovarian): > 100 µM

SMILES: CCCSc1cc(Cl)c(C)cc1S(=O)(=O)n1ccnc1OCCCN(C)C
- TGI (PC-3 prostate): > 100 µM
- TGI (HT29 colon): > 100 µM
- TGI (SF-268 CNS): > 100 µM
- TGI (ACHN renal): > 100 µM
- TGI (BT-549 breast): > 100 µM
- TGI (RXF 393 renal): > 100 µM
- TGI (EKVX NSCLC): > 100 µM
- TGI (OVCAR-8 ovarian): > 100 µM

SMILES: COc1ccc2c(c1)OCC1(O)Cc3ccccc3OC21 (stereo not drawn)
- TGI (PC-3 prostate): > 100 µM
- TGI (HT29 colon): > 100 µM
- TGI (SF-268 CNS): > 100 µM
- TGI (ACHN renal): > 100 µM
- TGI (BT-549 breast): > 100 µM
- TGI (EKVX NSCLC): > 100 µM
- TGI (OVCAR-8 ovarian): > 100 µM

SMILES: Brc1ccc2c(-c3nc(-c4c[nH]c5ccccc45)cs3)c[nH]c2c1
- TGI (PC-3 prostate): > 91.2 µM
- TGI (HT29 colon): > 100 µM
- TGI (SF-268 CNS): > 100 µM
- TGI (ACHN renal): > 100 µM
- TGI (BT-549 breast): > 96.8 µM
- TGI (RXF 393 renal): > 68.7 µM
- TGI (EKVX NSCLC): > 100 µM
- TGI (OVCAR-8 ovarian): > 100 µM

SMILES: Cn1ccnc1CCc1ccc(F)cc1F
- TGI (PC-3 prostate): > 100 µM
- TGI (HT29 colon): > 100 µM
- TGI (SF-268 CNS): > 100 µM
- TGI (ACHN renal): > 100 µM
- TGI (BT-549 breast): > 100 µM
- TGI (RXF 393 renal): > 100 µM
- TGI (EKVX NSCLC): > 100 µM
- TGI (OVCAR-8 ovarian): > 100 µM

SMILES: COc1c(-c2cc(C)c(Cl)c(=O)[nH]2)c(O)c(OC)c2occc12
- TGI (PC-3 prostate): > 100 µM
- TGI (HT29 colon): > 100 µM
- TGI (SF-268 CNS): > 100 µM
- TGI (ACHN renal): > 100 µM
- TGI (RXF 393 renal): > 100 µM
- TGI (EKVX NSCLC): > 100 µM
- TGI (OVCAR-8 ovarian): > 100 µM

SMILES: C(=N\Nc1ncc(-c2cc3cc4c(cc3o2)OCO4)s1)/c1c[nH]c2ccccc12
- GI50 (PC-3 prostate): 519 nM
- TGI (PC-3 prostate): 6.2 µM
- GI50 (HT29 colon): 3.32 µM
- TGI (HT29 colon): > 100 µM
- GI50 (SF-268 CNS): 589 nM
- TGI (SF-268 CNS): 2.86 µM
- GI50 (ACHN renal): 860 nM
- TGI (ACHN renal): 2.61 µM
- GI50 (BT-549 breast): 1320 nM
- TGI (BT-549 breast): 7.55 µM
- GI50 (RXF 393 renal): 1330 nM
- TGI (RXF 393 renal): 2.78 µM
- GI50 (EKVX NSCLC): 1270 nM
- TGI (EKVX NSCLC): 6.44 µM
- GI50 (OVCAR-8 ovarian): 1650 nM
- TGI (OVCAR-8 ovarian): > 100 µM

SMILES: CCCC1NC(C#N)(C#N)C(CCC)NC1(C#N)C#N (stereo not drawn)
- TGI (PC-3 prostate): > 88.7 µM
- TGI (HT29 colon): > 55.7 µM
- TGI (SF-268 CNS): > 48.7 µM
- TGI (ACHN renal): > 100 µM
- TGI (BT-549 breast): > 27 µM
- TGI (RXF 393 renal): > 66.9 µM
- TGI (EKVX NSCLC): > 100 µM
- TGI (OVCAR-8 ovarian): 21.6 µM

SMILES: COc1cc2c(cc1OC)C1CN3C(=O)CCC3C(O)C1c1cc(OC)c(OC)cc1-2 (stereo not drawn)
- TGI (HT29 colon): > 100 µM
- TGI (SF-268 CNS): > 100 µM
- TGI (ACHN renal): > 100 µM
- TGI (BT-549 breast): > 100 µM
- TGI (RXF 393 renal): > 100 µM
- TGI (EKVX NSCLC): > 100 µM
- TGI (OVCAR-8 ovarian): > 100 µM

SMILES: O=C1C=Cc2c(Cl)sc(Cl)c21
- TGI (PC-3 prostate): 4.83 µM
- TGI (HT29 colon): 3.34 µM
- TGI (SF-268 CNS): 3.58 µM
- TGI (ACHN renal): 3.16 µM
- TGI (BT-549 breast): 7.92 µM
- TGI (RXF 393 renal): 4.28 µM
- TGI (EKVX NSCLC): 16.8 µM

SMILES: COC(c1ccsc1)C(C#N)(C#N)N=Cc1ccsc1 (stereo not drawn)
- TGI (PC-3 prostate): 27.5 µM
- TGI (HT29 colon): 25.1 µM
- TGI (SF-268 CNS): 33.8 µM
- TGI (ACHN renal): 54.6 µM
- TGI (BT-549 breast): 38.7 µM
- TGI (RXF 393 renal): 27 µM
- TGI (EKVX NSCLC): 32.9 µM
- TGI (OVCAR-8 ovarian): 49.9 µM

SMILES: CCOC(=O)C(=[N+]=[N-])C(=O)C[N+]12CCN(CC1)CC2
- TGI (PC-3 prostate): > 100 µM
- TGI (HT29 colon): > 100 µM
- TGI (SF-268 CNS): > 100 µM
- TGI (ACHN renal): > 100 µM
- TGI (BT-549 breast): > 100 µM
- TGI (RXF 393 renal): > 100 µM
- TGI (OVCAR-8 ovarian): > 100 µM

SMILES: CCNc1nc(N)c(C(=O)c2ccc(Cl)cc2)s1
- TGI (PC-3 prostate): > 100 µM
- TGI (HT29 colon): > 100 µM
- TGI (SF-268 CNS): > 100 µM
- TGI (ACHN renal): > 100 µM
- TGI (BT-549 breast): > 100 µM
- TGI (RXF 393 renal): 53.5 µM
- TGI (EKVX NSCLC): 45.5 µM

SMILES: O=[N+]([O-])C(/C(Cl)=C(/Cl)N1CCOCC1)=C1\NCCO1
- TGI (PC-3 prostate): > 100 µM
- TGI (HT29 colon): > 100 µM
- TGI (SF-268 CNS): > 100 µM
- TGI (ACHN renal): > 100 µM
- TGI (BT-549 breast): > 100 µM
- TGI (EKVX NSCLC): > 100 µM
- TGI (OVCAR-8 ovarian): > 100 µM

SMILES: CC(C)(C)c1cc(C(O)(C(=O)O)C(=O)O)cc(C(C)(C)C)c1O
- TGI (PC-3 prostate): > 100 µM
- TGI (HT29 colon): > 100 µM
- TGI (SF-268 CNS): > 100 µM
- TGI (ACHN renal): > 100 µM
- TGI (BT-549 breast): > 100 µM
- TGI (RXF 393 renal): > 100 µM
- TGI (EKVX NSCLC): > 100 µM
- TGI (OVCAR-8 ovarian): > 100 µM

SMILES: CSc1nc2ccccc2c(=O)n1/N=C1\C(=O)N(CN2CCOCC2)c2ccc(Cl)cc21
- TGI (PC-3 prostate): > 100 µM
- TGI (HT29 colon): > 100 µM
- TGI (SF-268 CNS): > 100 µM
- TGI (ACHN renal): > 100 µM
- TGI (BT-549 breast): 93.8 µM
- TGI (RXF 393 renal): 44.8 µM
- TGI (EKVX NSCLC): 64.8 µM
- TGI (OVCAR-8 ovarian): > 100 µM

SMILES: O=C(Nc1ccccc1)c1cc2c(cc1Cl)Sc1nccn1S2(=O)=O
- TGI (PC-3 prostate): > 70.1 µM
- TGI (HT29 colon): > 75.6 µM
- TGI (SF-268 CNS): > 89.8 µM
- TGI (ACHN renal): > 83.1 µM
- TGI (BT-549 breast): 60.7 µM
- TGI (RXF 393 renal): > 71.2 µM
- TGI (EKVX NSCLC): 60.5 µM
- TGI (OVCAR-8 ovarian): > 100 µM
